Measured values taken from ChEMBL document CHEMBL1133190, “SPR biosensor studies of the direct interaction between 27 drugs and a liposome surface: correlation with fraction absorbed in humans” (J Med Chem, 2000).

Columns and labels:
[1] = Estimation of fraction absorbed (Fa) in the human intestine using biosensor technology.; format: ADME, organism-based; conditions: in vivo
[2] = test system: Liposome; assay: (§1) Binding to POPC (palmitoyl-oleolyl-phosphatidyl-choline) liposomes using biosensor system; format: functional
[3] = test system: Liposome; assay: (§2) Binding to POPC/GMI liposomes using biosensor system; format: functional
[4] = test system: Liposome; assay: as §2
[5] = test system: Liposome; assay: as §1

Structure (SMILES) | Fa [1] [%] | Other [2] | Other [3] | Other [4] | Other [5]
COc1ccc(CCN(C)CCCC(C#N)(c2ccc(OC)c(OC)c2)C(C)C)cc1OC (stereo unspecified) | 100 | – | – | – | –
C=CCOc1ccccc1OCC(O)CNC(C)C (stereo unspecified) | – | 120 | 277 | – | –
C=CCc1ccccc1OCC(O)CNC(C)C (stereo unspecified) | – | 297 | 480 | – | –
CC(C)(C)NCC(O)c1cc(O)cc(O)c1 (stereo unspecified) | – | – | – | 117 | 47
CC(C)NCC(O)COc1ccc(CC(N)=O)cc1 (stereo unspecified) | – | 24 | 38 | – | –
CC(C)NCC(O)COc1cccc2[nH]ccc12 (stereo unspecified) | – | 142 | 314 | – | –
CCN1CCCC1CNC(=O)c1cc(S(N)(=O)=O)ccc1OC (stereo unspecified) | – | 47 | 78 | – | –
COCCc1ccc(OCC(O)CNC(C)C)cc1 (stereo unspecified) | – | – | – | 179 | 82
NC[C@H]1CC[C@H](C(=O)O)CC1 | – | 20 | 14 | – | –
O=C(O)P(=O)(O)O | – | – | – | 62 | 32
O=C(O)c1cc(/N=N/c2ccc(S(=O)(=O)Nc3ccccn3)cc2)ccc1O | – | – | – | 348 | 241
OC[C@@H](O)[C@@H](O)[C@H](O)[C@H](O)CO | – | 22 | 29 | – | –
OC[C@H]1O[C@@H](O[C@@H]2[C@@H](CO)O[C@](O)(CO)[C@H]2O)[C@H](O)[C@@H](O)[C@H]1O | – | 22 | 29 | – | –
OC[C@H]1O[C@H](OC[C@H]2O[C@H](O[C@]3(CO)O[C@H](CO)[C@@H](O)[C@@H]3O)[C@H](O)[C@@H](O)[C@@H]2O)[C@H](O)[C@@H](O)[C@H]1O | – | 24 | 34 | – | –
CC1(C)S[C@@H]2[C@H](NC(=O)[C@H](N)c3ccc(O)cc3)C(=O)N2[C@H]1C(=O)O [AMOXICILLIN] | 90 | 17 | 9 | – | –
Cc1cc(=O)n(-c2ccccc2)n1C [ANTIPYRINE] | 100 | 19 | 12 | – | –
NC(=O)N1c2ccccc2C=Cc2ccccc21 [CARBAMAZEPINE] | 100 | 70 | 144 | – | –
CN1CC(=O)NC1=N [CREATININE] | 100 | – | – | 13 | 22
CNCCCN1c2ccccc2CCc2ccccc21 [DESIPRAMINE] | 100 | 1010 | 1200 | – | –
OC[C@H]1OC(O)[C@H](O)[C@@H](O)[C@@H]1O (stereo partly specified) [DEXTROSE] | 100 | 18 | 10 | – | –
NS(=O)(=O)c1cc(C(=O)O)c(NCc2ccco2)cc1Cl [FUROSEMIDE] | 50 | 56 | 92 | – | –
NS(=O)(=O)c1cc2c(cc1Cl)NCNS2(=O)=O [HYDROCHLOROTHIAZIDE] | 55 | 60 | 95 | – | –
CC(C(=O)O)c1cccc(C(=O)c2ccccc2)c1 (stereo unspecified) [KETOPROFEN] | 100 | 62 | 101 | – | –
CC(C)C[C@H](N)C(=O)O [LEUCINE] | 100 | – | – | 11 | 18
COc1ccc2cc([C@H](C)C(=O)O)ccc2c1 [NAPROXEN] | 100 | – | – | 183 | 109
CC(C)NCC(O)COc1cccc2ccccc12 (stereo unspecified) [PROPRANOLOL] | 100 | 683 | 839 | – | –
NC(N)=O [UREA] | 100 | – | – | 26 | 23
